“And” between values parts separate entries of the source, which are not always exact repeats. Equal entries are not always repeated. Structures can show the parent of a compound that is named as a salt.
Key:
[1] = tested on: liver fibrosis in subjects with chronic hepatitis B (CHB); assay: Liver biopsy (Ishak fibrosis score) in CHB subjects before and after 240 weeks of TDF; assay type: in vivo, human; conditions: for Chance of regression of cirrhosis at week 240: cirrhotic subjects
Method: Serum LOXL2 levels were assessed in subjects with chronic hepatitis B (CHB) and liver fibrosis, both before treatment and after 240 weeks of treatment with 300 mg tenofovir disoproxil fumarate (TDF). Liver biopsies were taken from 348 human subjects with CHB, prior to treatment and after 240 weeks of treatment with TDF. The biopsies were scored by pathologists using the Ishak scale for assessment of fibrosis. […] Of the 96 subjects who began the study with biopsy-proven cirrhosis, 74% had regression of cirrhosis after 240 weeks of treatment. […] At week 240 following treatment, 42 of these 81 subjects had cirrhosis regression, 16 had persistent cirrhosis, 2 had progressed to cirrhosis over the course of treatment, 18 were non-cirrhotic subjects with no change in fibrosis, and 3 were non-cirrhotic subjects with at least a 2-point reduction in fibrosis as measured by Ishak.

serum LOXL2 = assay: Serum LOXL2 by ELISA at baseline and week 240 of TDF treatment in CHB subjects; assay type: in vivo, human; conditions: for Median serum LOXL2: LOQ = 440 pg/mL
Excerpt: At week 240 following treatment, 42 of these 81 subjects had cirrhosis regression, 16 had persistent cirrhosis, 2 had progressed to cirrhosis over the course of treatment, 18 were non-cirrhotic subjects with no change in fibrosis, and 3 were non-cirrhotic subjects with at least a 2-point reduction in fibrosis as measured by Ishak.

LOXL2 = target: T1, LOXL2 (Homo sapiens, UniProt Q9Y4K0); assay: LOXL2 immunoassay of plasma/serum from patients receiving AB0024; assay type: in vivo; conditions: samples day 1 (pre-dose), 29 and 57
T1 construct: from tissue; host or cells: plasma and serum of human cancer patients
T1 sequence (Q9Y4K0 26-774): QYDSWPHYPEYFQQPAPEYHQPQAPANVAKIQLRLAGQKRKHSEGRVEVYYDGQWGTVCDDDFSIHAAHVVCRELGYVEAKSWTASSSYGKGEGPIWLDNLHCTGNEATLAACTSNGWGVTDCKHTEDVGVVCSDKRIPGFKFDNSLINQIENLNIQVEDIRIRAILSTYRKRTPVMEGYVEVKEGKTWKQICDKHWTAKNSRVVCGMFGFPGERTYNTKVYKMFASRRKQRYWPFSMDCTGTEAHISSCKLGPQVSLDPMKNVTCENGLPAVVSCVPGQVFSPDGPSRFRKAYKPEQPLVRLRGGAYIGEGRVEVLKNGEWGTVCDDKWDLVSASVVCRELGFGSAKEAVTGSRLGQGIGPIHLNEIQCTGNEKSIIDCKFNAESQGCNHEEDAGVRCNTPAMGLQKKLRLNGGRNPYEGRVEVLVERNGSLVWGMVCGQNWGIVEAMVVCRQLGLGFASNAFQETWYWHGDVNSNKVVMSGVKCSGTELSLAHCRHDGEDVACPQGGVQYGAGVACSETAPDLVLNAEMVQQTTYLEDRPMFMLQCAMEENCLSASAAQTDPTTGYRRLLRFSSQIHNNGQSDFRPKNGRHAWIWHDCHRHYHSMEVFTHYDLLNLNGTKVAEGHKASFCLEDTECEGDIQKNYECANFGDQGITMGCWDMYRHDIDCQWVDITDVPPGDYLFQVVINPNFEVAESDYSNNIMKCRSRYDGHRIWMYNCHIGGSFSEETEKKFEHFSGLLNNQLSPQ
Method: Standard single-spot uncoated electrode plates from MesoScale Discovery (MSD) (cat #L15XA-3) were coated overnight at 4° C. with a 30 μl volume of a solution of 3 μg/ml rabbit anti-human-LOXL2 polyclonal antibody formulated in phosphate-buffered saline (PBS). After coating, the wells of the plates were blocked by addition of a solution of 5% (w/v) Blocker A (MSD cat#R93AA-1) in PBS. After the blocking step, plates were washed 3 times in PBS containing 0.05% Tween-20 non-ionic detergent, using an automated plate washer. Human samples to be tested (serum or plasma) were prepared separately by diluting them 1:4 in PBS (1 part serum, 3 parts PBS). Samples were then added to each well of the plate. Samples were incubated with rotary shaking (300-600 rpm) for 2-3 hours at room temperature. After sample binding, the plates were again washed 3 times in PBS containing 0.05% Tween-20 detergent, using an automated plate washer. […]
1× Read Buffer T with Surfactants (MSD cat#R92TC-2) was added to each well, followed by immediate measurement of the plate on the MSD SectorImager 2400 instrument.
Test human samples were given a relative quantitative value of LOXL2 by comparison to the calibrator curve on the same assay plate, comprised of purified recombinant human LOXL2 protein (R&D Systems) added in known concentrations to human serum or plasma pooled from normal healthy donors. […]

cancer = assay: Cancer patients treated with anti-LOXL2 antibody AB0024: time to progression; assay type: in vivo, human; conditions: individual cancer patients
Excerpt: Blood samples were obtained at Day 1 on which anti-LOXL2 treatment began (sample taken before anti-LOXL2 treatment); and on days 29 and 57 following the beginning of anti-LOXL2 treatment.

[2] = Wk 240, Persistent Cirrhosis (n = 16), baseline 31%
[3] = baseline to Wk 240, Non-Cirrhotic No Δ (n = 18)
[4] = baseline to Wk 240, Persistent Cirrhosis (n = 16)
[5] = baseline to Wk 240, Reversed Cirrhosis (n = 42)

Molecule: CC(C)OC(=O)OCOP(=O)(CO[C@H](C)Cn1cnc2c(N)ncnc21)OCOC(=O)OC(C)C [TDF, tenofovir disoproxil fumarate]
- Subjects with improvement in, or no progression of, liver fibrosis ([1]; 348 CHB subjects, 300 mg, 240 weeks): 96.3%
- Chance of regression of cirrhosis at week 240 ([1]; baseline serum LOXL2 above 3000 pg/mL): 29%
- Chance of regression of cirrhosis at week 240 ([1]; baseline serum LOXL2 between 1500 and 3000 pg/mL): 70%
- Chance of regression of cirrhosis at week 240 ([1]; baseline serum LOXL2 less than 1500 pg/mL): 88%
- Patients with regression or improvement of Ishak fibrosis score ([1]; of the 60 patients with baseline cirrhosis, 240 weeks): 72%
- Subjects with regression of cirrhosis ([1]; of the 96 subjects with biopsy-proven cirrhosis at start, after 240 weeks): 74%
- Mean serum LOXL2 (serum LOXL2; Week 240, Ishak Stage 0-3, N 56 (baseline 510.2, N 18)): 746.8 pg/mL
- Mean serum LOXL2 (serum LOXL2; Week 240, Ishak Stage 4-6, N 25 (baseline 3298.2, N 63)): 753.5 pg/mL
- Mean serum LOXL2 (serum LOXL2; Week 240, all subjects N 81 (baseline 2678.6)): 748.9 pg/mL
- Subjects with serum LOXL2 >3000 pg/mL (serum LOXL2; Wk 240, Non-Cirrhotic No Δ (n = 18), baseline 6%): 0 (0%)
- Subjects with serum LOXL2 <LoD (serum LOXL2; Wk 240, Non-Cirrhotic No Δ (n = 18), baseline 22%): 8 (44%)
- Subjects with serum LOXL2 <LoQ (serum LOXL2; Wk 240, Non-Cirrhotic No Δ (n = 18), baseline 56%): 14 (78%)
- Subjects with serum LOXL2 <1000 pg/mL (serum LOXL2; Wk 240, Non-Cirrhotic No Δ (n = 18), baseline 72%): 15 (83%)
- Mean serum LOXL2 (serum LOXL2; Wk 240, Non-Cirrhotic No Δ (n = 18), baseline 798.4): 436.8 pg/mL
- Median serum LOXL2 (serum LOXL2; Wk 240, Non-Cirrhotic No Δ (n = 18), baseline <LOQ): <LOQ
- Subjects with serum LOXL2 <LoD (serum LOXL2; Wk 240, Persistent Cirrhosis (n = 16), baseline 6%): 2 (13%)
- Subjects with serum LOXL2 <LoQ (serum LOXL2; Wk 240, Persistent Cirrhosis (n = 16), baseline 13%): 8 (50%)
- Subjects with serum LOXL2 <1000 pg/mL (serum LOXL2; [2]): 14 (88%)
- Subjects with serum LOXL2 >3000 pg/mL (serum LOXL2; [2]): 0 (0%)
- Median serum LOXL2 (serum LOXL2; Wk 240, Persistent Cirrhosis (n = 16), baseline 1863): LOQ
- Mean serum LOXL2 (serum LOXL2; Wk 240, Persistent Cirrhosis (n = 16), baseline 9124.1): 603.8 pg/mL
- Subjects with serum LOXL2 <LoD (serum LOXL2; Wk 240, Reversed Cirrhosis (n = 42), baseline 2%): 13 (31%)
- Subjects with serum LOXL2 >3000 pg/mL (serum LOXL2; Wk 240, Reversed Cirrhosis (n = 42), baseline 5%): 3 (7%)
- Subjects with serum LOXL2 <LoQ (serum LOXL2; Wk 240, Reversed Cirrhosis (n = 42), baseline 10%): 29 (69%)
- Subjects with serum LOXL2 <1000 pg/mL (serum LOXL2; Wk 240, Reversed Cirrhosis (n = 42), baseline 48%): 35 (83%)
- Median serum LOXL2 (serum LOXL2; Wk 240, Reversed Cirrhosis (n = 42), baseline 1073): <LOQ
- Mean serum LOXL2 (serum LOXL2; Wk 240, Reversed Cirrhosis (n = 42), baseline 1355.0): 922.6 pg/mL
- Subjects with Decrease in serum LOXL2 (serum LOXL2; [3]): 9 (50%)
- Subjects with Increase in serum LOXL2 (serum LOXL2; [3]): 2 (11%)
- Subjects with Decrease in serum LOXL2 (serum LOXL2; [4]): 14 (88%)
- Subjects with Increase in serum LOXL2 (serum LOXL2; [4]): 0 (0%)
- Subjects with Decrease in serum LOXL2 (serum LOXL2; [5]): 37 (88%)
- Subjects with Increase in serum LOXL2 (serum LOXL2; [5]): 5 (12%)
- Cirrhotic subjects with a reduction in LOXL2 levels (serum LOXL2; baseline to week 240): 88%
- Subjects with a reduction in serum LOXL2 levels (serum LOXL2; of the 81 subjects, baseline to week 240): 79%
- Subjects with no change in LOXL2 levels (serum LOXL2; of the 81 subjects, each with baseline below limit of quantitation): 11%

B1: AB0024: humanized anti-LOXL2 monoclonal antibody; inhibits LOXL2 enzymatic activity, binds epitope within SRCR3-4; VH SEQ ID NO:8, VL SEQ ID NO:9 (antibody, V domains shown)
VH: QVQLVQSGAEVKKPGASVKVSCKASGYAFTYYLIEWVRQAPGQGLEWIGVINPGSGGTNYNEKFKGRATITADKSTSTAYMELSSLRSEDTAVYFCARNWMNFDYWGQGTTVTVSS
VL: DIVMTQTPLSLSVTPGQPASISCRSSKSLLHSNGNTYLYWFLQKPGQSPQFLIYRMSNLASGVPDRFSGSGSGTDFTLKISRVEAEDVGVYYCMQHLEYPYTFGGGTKVEIK
- Effect of antibody administration on LOXL2 signal in plasma/serum (LOXL2): did not clear or mask the LOXL2 signal
- Time to progression (cancer; dose level 1 mpk): 44 days and Stable and 57 days
- Time to progression (cancer; dose level 3 mpk): 38 days and 56 days and 42 days
- Time to progression (cancer; dose level 10 mpk): 57 days and 30 days and 51 days
